Test results published in US12495798B2, “Nicotinamide compound and herbicidal composition comprising compound” (KOREA RESEARCH INSTITUTE OF CHEMICAL TECHNOLOGY, priority 2019, dated 2025).

Tests used:
Assay type in all cases: in vivo
[1] = test system: sorghum; assay: Herbicidal activity test against upland field weeds (foliar treatment test); parameters: key to Foliar treatment herbicidal activity, Sorghum: 0 (no control); 100 (complete control); details: 50 g ai/ha, scale 0-100; for plant injury at 50 g/ha: Sorghum
Procedure: (§1) Experimental Example 1: Herbicidal Activity Test Against Upland Field Weeds (Foliar Treatment Test) Foliar treatment was performed as follows: After filling a square plastic pot having a surface area of 350 cm^2 with horticultural soil, seeds (10˜15 grains) or rootstocks (2 pieces) of 5 kinds of grassy weeds of sorghum, barnyard grass, quack grass, crabgrass, fall panicum, and 5 kinds of broadleaf weeds of black nightshade, indian jointvetch, velvetleaf, cocklebur, bindweed, which had been stored in a low temperature (6° C.), were sown. After growing for a certain period in greenhouse conditions (average temperature 30±5° C., light/dark=14/10 hours), test compound solutions were made by diluting with a preparation solution (including 50% acetone, 0.1% Tween-20) so that the final treatment amount of the test compounds was 50 or 75 g a.i./ha. The prepared test compound solution was used for treating foliage by hand-spraying 14 mL per pot in a fume hood. After the treatment, it was managed under the same greenhouse conditions as above, and after 14 days (after 21 days if necessary), the external symptoms and efficacy were investigated according to the scale of 0 (no control) to 100 (complete control). The results of Table 7 were obtained by evaluating weed control value to the untreated control by conducting visual assessment.

[2] = test system: barnyard grass; assay: as above; parameters: key to Foliar treatment herbicidal activity, barnyard grass: 0 (no control); 100 (complete control); details: 50 g ai/ha, scale 0-100; for pest or weed control at 50 g/ha: Echinochloa crus-galli
Procedure: as §1

[3] = test system: quack grass; assay: as above; parameters: key to Foliar treatment herbicidal activity, quack grass: 0 (no control); 100 (complete control); details: 50 g ai/ha, scale 0-100
Procedure: as §1

[4] = test system: crabgrass; assay: as above; parameters: key to Foliar treatment herbicidal activity, Crabgrass: 0 (no control); 100 (complete control); details: 50 g ai/ha, scale 0-100; for pest or weed control at 50 g/ha: Digitaria sanguinalis
Procedure: as §1

[5] = test system: fall panicum; assay: as above; parameters: key to Foliar treatment herbicidal activity, Fall panicum: 0 (no control); 100 (complete control); details: 50 g ai/ha, scale 0-100; for pest or weed control at 50 g/ha: Panicum dichotomiflorum
Procedure: as §1

[6] = test system: black nightshade; assay: as above; parameters: key to Foliar treatment herbicidal activity, black nightshade: 0 (no control); 100 (complete control); details: 50 g ai/ha, scale 0-100; for pest or weed control at 50 g/ha: Solanum nigrum
Procedure: as §1

[7] = test system: indian jointvetch; assay: as above; parameters: key to Foliar treatment herbicidal activity, Indian jointvetch: 0 (no control); 100 (complete control); details: 50 g ai/ha, scale 0-100
Procedure: as §1

[8] = test system: velvetleaf; assay: as above; parameters: key to Foliar treatment herbicidal activity, velvet leaf: 0 (no control); 100 (complete control); details: 50 g ai/ha; for Foliar treatment herbicidal activity, velvet leaf: scale 0-100; for pest or weed control at 50 g/ha: Abutilon theophrasti, scale 0-100, read-out: Foliar treatment herbicidal activity, velvet leaf
Procedure: as §1

[9] = test system: cocklebur; assay: as above; details: Xanthium strumarium, 50 g ai/ha, scale 0-100
Procedure: as §1

[10] = test system: bindweed; assay: as above; parameters: key to Foliar treatment herbicidal activity, Bindweed: 0 (no control); 100 (complete control); details: 50 g ai/ha, scale 0-100
Procedure: as §1

[11] = test system: corn; assay: Phytotoxicity test for upland field crops (foliar treatment test); parameters: key: 0 (no harm); 9 (complete withered)
Procedure: (§2) Experimental Example 3: Phytotoxicity Test for Upland Field Crops (Foliar Treatment Test)
(§3) Foliar treatment was performed for grown crops and weeds in a square plastic pot having a surface area of 50 cm^2 filled with horticultural soil. As a fertilizer per pot, 0.5 g of horticultural mixed fertilizer (N:P:K=17:21:17) was treated by mixing in the upper soil. Five kinds of crops such as rice, wheat, corn, soybean, and cotton were sown in each pot, and after growing for a certain period in greenhouse conditions (average temperature 30±5° C., light/dark=14/10 hours), test compound solutions were made by diluting with the diluent (33% acetone, 0.1% Tween-20) so that the final treatment amount of the test compounds was 19˜300 g a.i./ha. The prepared test compound solutions were treated using a spray booth (SB6-016) at a treatment amount of 100 ml per 1 m^2 of treatment area. The treated plants were managed under the same greenhouse conditions as above, and external symptoms and phytotoxicity were investigated 7 and 14 days after treatment (after 21 days if necessary). In the evaluation of the phytotoxicity for the crop, the grade of 0 (no harm) to 9 (complete withered) was used. The results of Table 9 were obtained by evaluating crop phytotoxicity value to the untreated control.

[12] = test system: wheat; assay: as above; parameters: key: 0 (no harm); 9 (complete withered)
Procedure: as §2, §3

[13] = 50 g ai/ha, Corn (7 days after treatment)
[14] = 50 g ai/ha, Corn (14 days after treatment)
[15] = 100 g ai/ha, Corn (7 days after treatment)
[16] = 100 g ai/ha, Corn (14 days after treatment)
[17] = 50 g ai/ha, Wheat (7 days after treatment)
[18] = 50 g ai/ha, Wheat (14 days after treatment)
[19] = 100 g ai/ha, Wheat (7 days after treatment)
[20] = 100 g ai/ha, Wheat (14 days after treatment)

Structure (SMILES)	Foliar treatment herbicidal activity, Sorghum [1]	Foliar treatment herbicidal activity, barnyard grass [2]	Foliar treatment herbicidal activity, quack grass [3]	pest or weed control at 50 g/ha [6] [%]	pest or weed control at 50 g/ha [9] [%]	plant injury at 50 g/ha [1] [%]	pest or weed control at 50 g/ha [2] [%]	pest or weed control at 50 g/ha [4] [%]	pest or weed control at 50 g/ha [5] [%]	pest or weed control at 50 g/ha [7] [%]	pest or weed control at 50 g/ha [8] [%]	pest or weed control at 50 g/ha [10] [%]	Foliar treatment phytotoxicity, Corn [11, 13]	Foliar treatment phytotoxicity, Corn [11, 14]	Foliar treatment phytotoxicity, Corn [11, 15]	Foliar treatment phytotoxicity, Corn [11, 16]	Foliar treatment phytotoxicity, Wheat [12, 17]	Foliar treatment phytotoxicity, Wheat [12, 18]	Foliar treatment phytotoxicity, Wheat [12, 19]	Foliar treatment phytotoxicity, Wheat [12, 20]	also measured
Cn1nnnc1COc1nc(Cl)ccc1C(=O)Nc1nnnn1C [Compound No. 1-20, 6-chloro-N-(1-methyl-1H-tetrazol-5-yl)-2-((1-methyl-1H-tetrazol-5-yl)methoxy)nicotinamide]	0	0	0	50	20	–	–	–	–	–	–	–	–	–	–	–	–	–	–	–	Foliar treatment herbicidal activity, Crabgrass [4]: 0; Foliar treatment herbicidal activity, Fall panicum [5]: 0; Foliar treatment herbicidal activity, Indian jointvetch [7]: 0; Foliar treatment herbicidal activity, velvet leaf [8]: 0; Foliar treatment herbicidal activity, Bindweed [10]: 0
C=CCn1nnnc1NC(=O)c1ccc(C(F)(F)F)nc1COCc1nc(C(F)F)n(C)n1 [Compound No. 2-125, N-(1-allyl-1H-tetrazol-5-yl)-2-(((5-(difluoromethyl)-1-methyl-1H-1,2,4-triazol-3-yl)methoxy)methyl)-6-(trifluoromethyl)nicotinamide]	–	–	–	95	80	30	60	95	90	60	40	95	0	0	1	1	0	0	0	0	pest or weed control at 50 g/ha [3]: 40%
Cn1nnnc1NC(=O)c1ccc(C(F)(F)F)nc1COCc1nc(C(F)(F)F)n(C)n1 [Compound No. 2-118, N-(1-methyl-1H-tetrazol-5-yl)-2-(((1-methyl-5-(trifluoromethyl)-1H-1,2,4-triazol-3-yl)methoxy)methyl)-6-(trifluoromethyl)nicotinamide]	–	–	0	–	90	40	95	90	95	50	90	95	0	0	0	0	0	0	0	0	Foliar treatment herbicidal activity, black nightshade [6]: 100
C=CCn1nnnc1NC(=O)c1ccc(C(F)(F)F)nc1COCc1nc(C(F)(F)F)n(C)n1 [Compound No. 2-121, N-(1-allyl-1H-tetrazol-5-yl)-2-(((1-methyl-5-(trifluoromethyl)-1H-1,2,4-triazol-3-yl)methoxy)methyl)-6-(trifluoromethyl)nicotinamide]	–	–	0	95	70	10	20	30	50	30	40	40	0	0	0	0	0	0	0	0	–
CN(Cc1nnn(C)n1)Cc1nc(C(F)(F)F)ccc1C(=O)Nc1nnnn1C [Compound No. 2-93, 2-((methyl((2-methyl-2H-tetrazol-5-yl)methyl)amino)methyl)-N-(1-methyl-1H-tetrazol-5-yl)-6-(trifluoromethyl)nicotinamide]	–	–	0	–	95	20	20	40	30	70	80	50	–	–	–	–	–	–	–	–	Foliar treatment herbicidal activity, black nightshade [6]: 100
Cn1nnnc1NC(=O)c1ccc(C(F)(F)F)nc1COCc1nnn(C(F)F)n1 [Compound No. 2-92, 2-(((2-(difluoromethyl)-2H-tetrazol-5-yl)methoxy)methyl)-N-(1-methyl-1H-tetrazol-5-yl)-6-(trifluoromethyl)nicotinamide]	0	0	0	–	70	–	–	20	40	70	80	70	–	–	–	–	–	–	–	–	Foliar treatment herbicidal activity, black nightshade [6]: 100
Cn1nnnc1NC(=O)c1ccc(C(F)(F)F)nc1COCc1nc(OCC(F)(F)F)n(C)n1 [Compound No. 2-130, N-(1-methyl-1H-tetrazol-5-yl)-2-(((1-methyl-5-(2,2,2-trifluoroethoxy)-1H-1,2,4-triazol-3-yl)methoxy)methyl)-6-(trifluoromethyl)nicotinamide]	–	–	0	98	60	30	95	90	70	60	50	70	–	–	–	–	–	–	–	–	–
Cn1nnnc1COc1nc(C(F)(F)F)cc(Cl)c1C(=O)Nc1nnnn1C [Compound No. 1-13, 4-chloro-N-(1-methyl-1H-tetrazol-5-yl)-2-((1-methyl-1H-tetrazol-5-yl)methoxy)-6-(trifluoromethyl)nicotinamide]	0	0	0	60	20	–	–	–	–	–	–	–	–	–	–	–	–	–	–	–	Foliar treatment herbicidal activity, Crabgrass [4]: 0; Foliar treatment herbicidal activity, Fall panicum [5]: 0; Foliar treatment herbicidal activity, Indian jointvetch [7]: 0; Foliar treatment herbicidal activity, velvet leaf [8]: 0; Foliar treatment herbicidal activity, Bindweed [10]: 0
